Reference: patent US7666882B2, “Anthranilamide insecticides” (E.I. du Pont de Nemours and Company, priority 2002, dated 2010)

Test system: potato leafhopper (Empoasca fabae Harris)
Assay: Test D: control of potato leafhopper through contact and/or systemic means on Longio bean plant
Format: in vivo
Details: sprayed at 250 ppm, adults post-infested, 6 days, 19-21° C.
Procedure: Test compounds were formulated using a solution containing 10% acetone, 90% water and 300 ppm X-77® Spreader Lo-Foam Formula non-ionic surfactant containing alkylarylpolyoxyethylene, free fatty acids, glycols and isopropanol (Loveland Industries, Inc.). The formulated compounds were applied in 1 mL of liquid through a SUJ2 atomizer nozzle with ⅛ JJ custom body (Spraying Systems Co.) positioned 1.27 cm (0.5 inches) above the top of each test unit. All experimental compounds in this screen were sprayed at 250 ppm, replicated three times. After spraying of the formulated test compound, each test unit was allowed to dry for 1 hour and then a black, screened cap was placed on top. The test units were held for 6 days in a growth chamber at 19-21° C. and 50-70% relative humidity. Each test unit was then visually assessed for insect mortality.
For evaluating control of potato leafhopper (Empoasca fabae Harris) through contact and/or systemic means, the test unit consisted of a small open container with a 5-6 day old Longio bean plant (primary leaves emerged) inside. White sand was added to the top of the soil and one of the primary leaves was excised prior to application. Test compounds were formulated and sprayed at 250 ppm and replicated three times as described for Test C. […] Each test unit was then visually assessed for insect mortality.

## CNC(=O)c1cc(Cl)cc(Cl)c1NC(=O)c1cc(OCC#N)nn1-c1ncccc1Cl [Compound 11]
  insect mortality: at least 80%
